Tests used:
Format in all cases: cell-based
[1] = tested on: Escherichia coli 0157:H7 (ATCC 43895); assay: MIC and MBC determination (broth dilution)
Experimental: The determination of the MIC and MBC of 9-decenoic acid conformed to the procedure printed in the Federal Register, June 1994 and the present NCCLS M11-A4 protocol. Challenge organisms were prepared as follows. The MIC and MBC of 9-decenoic acid and the methyl ester of 9-decenoic acid were determined for the following challenge organisms: Staphylococcus aureus (ATCC 6538), Pseudomonas aeruginosa (ATCC 15442), Staphylococcus epidermidis (ATCC 12228), Klebsiella pneumoniae (ATCC 4352), Escherichia coli 0157:H7 (ATCC 43895) and Candida albicans (ATCC 10231). Stock cultures of each organism were transferred onto suitable culture media, Mueller-Hinton Agar (MHA) plates, and incubated for 24 hours (+2 hours) at 37° C. (+2° C.). On the day of the test, the top of at least three to five well-isolated colonies were transferred via wire loop to a tube containing 4 to 5 ml of Trypticase Soy Broth (TSB). The TSB culture was incubated for 2 to 6 hours and turbidity was adjusted with sterile saline to achieve the turbidity of a McFarland 0.5 Standard.
The concentrated 9-decenoic acid (97%) was diluted in Mueller-Hinton Broth (MHB) to yield a 25,000 ppm stock solution of the 9-decenoic acid. For each organism, 12 dilutions of the 9-decenoic acid in MHB were prepared ranging from 0.25% to 0.00049%. The test solution of the methyl ester of 9-decenoic acid was formulated in the same manner.
A 2-ml aliquot of appropriately diluted 9-decenoic acid solution or methyl ester of 9-decenoic acid was placed in each tube. Each tube was inoculated with 0.05 ml of a 1:10 dilution of one challenge organism. Tubes were incubated at 37° C. (±2° C.) for 20-24 hours and observed for microbial growth visually and by spectrophotometer. […] (±2° C.) for 20-24 hours and visually observed for growth.
Controls were run for sterility, viability and organism confirmation. It was determined that all cultures were viable and pure.
The MBC was defined as the concentration of 9-decenoic acid or the methyl ester of 9-decenoic acid that completely eradicated viable organisms from the test system.

[2] = tested on: Klebsiella pneumoniae (ATCC 4352); assay: Time-kill determination
Experimental: (§1) The assessment of efficacy of 9-decenoic acid against a spectrum of microorganisms was determined using the American Society for Testing and Materials (ASTM) procedure entitled “Standard Test Method for the Assessment of Microbiocidal Activity of Test Materials Using a Time-Kill Procedure,” October 1998. This procedure incorporates the recommendations described in the “Manual of Clinical Microbiology,” 5th ed., edited by A. B. Balows et al., ASM, Washington, and is directed by the Federal Register, June 1994.
(§2) Challenge organisms were prepared as follows. Cultures of the following organisms were obtained: Staphylococcus aureus (ATCC 6538), Pseudomonas aeruginosa (ATCC 15442), Staphylococcus epidermidis (ATCC 12228), Klebsiella pneumoniae (ATCC 4352), Escherichia coli 0157:H7 (ATCC 43895) and Candida albicans (ATCC 10231). The stock cultures were transferred to sterile tubes and sterile tryptic soy broth (TSB) was added to the cultures. The mixture was incubated for 18-24 hours at 37° C. (±2° C.). A portion of this culture was then transferred onto TSA plates and incubated for 18-24 hours at 37° C. (±2° C.). The plates were removed from incubation and the bacterial growth was washed from the agar surface using Butterfield's Phosphate Buffered Dilution Water (PBDW).
(§3) The bacterial suspension was adjusted to contain approximately 10^8 Colony Forming Units (CFU) per ml with PBDW. The concentration was adjusted to an optical density (OD) of 0.4-0.5 (versus a PBDW blank) at 620 nm in a UV-Vis spectrophotometer, and this optical density gave approximately 10^8 colony forming units per milliliter (cfu/ml). The standardized suspension was stored under appropriate conditions until it was used as the challenge inoculum.
(§4) Concentrated 9-decenoic acid (97%) was diluted in filter sterilized isopropanol to yield a 25,000 ppm stock solution. Subsequent dilutions to the 9-decenoic acid stock solutions were made with sterile Deionized Water (DI) to achieve concentrations of 0.1%, 0.05%, 0.01% and 0.001%. The pH was determined for each dilution; pH values ranged from 4.4-4.1. Additionally, 9-decenoic acid stock solution was adjusted to pH 7 with 1 N NaOH and serially diluted with sterile DI to achieve concentrations of 1%, 0.5%, 0.2%, 0.1%, 0.05% and 0.0025%. In addition, 9-decenoic acid stock solution was combined with Triclosan™ (obtained from Ciba Specialty Chemical Corporation, under the tradename Irgasan DP 300™) in various ratios, as indicated in Table 8. The pH of the combined solution was 7.
(§5) Compliant with the ASTM procedure cited, for each challenge microorganism a 9.9 ml aliquot of the prepared 9-decenoic acid suspension was added to a sterile tube. A 0.1 ml aliquot of the standardized inoculum was added to the 9-decenoic acid solution representing the start of the test exposure. The inoculated 9-decenoic acid solution was immediately mixed thoroughly. The inoculated suspension was held at room temperature for 0.5, 2, 5, 7 and 10-minute exposure times for tests run at pH level of approximately 4. The pH 7 tests were held at room temperature for 0.5 and 2 minutes.
(§6) At each exposure sample time, a 1.0 ml aliquot of the inoculated 9-decenoic acid suspension was transferred to 9.0 ml of D/E Neutralizing Broth. Additional ten-fold serial dilutions were made in PBDW and plated in duplicate on TSA. All plates were incubated for 48 hours at 37° C. (±2° C.) and visually examined for growth. The plates were enumerated, recorded and log kill determined for each time point.
(§7) The following study controls were conducted: culture purity, neutralizer sterility, initial suspension population, test population, neutralization verification and a negative control using isopropanol. Culture purity was verified by performing a streak plate for isolated colonies of each culture used. All cultures were determined to be pure based on consistent colony morphology typical for the test organism. The neutralizer sterility was confirmed by no growth in an incubated sample. […]

[3] = tested on: Pseudomonas aeruginosa (ATCC 15442); assay: Time-kill determination
Experimental: as §1, §2, §3, §4, §5, §6, §7

[4] = 0.01% 9-decenoic acid, pH 4.4, exposure 0.5 min
[5] = 0.01% 9-decenoic acid, pH 4.4, exposure 2 min
[6] = 0.01% 9-decenoic acid, pH 4.4, exposure 5 min
[7] = 0.01% 9-decenoic acid, pH 4.4, exposure 7 min
[8] = 0.01% 9-decenoic acid, pH 4.4, exposure 10 min
[9] = 0.05% 9-decenoic acid, pH 4.1, exposure 0.5 min
[10] = 0.05% 9-decenoic acid, pH 4.1, exposure 2 min
[11] = 0.05% 9-decenoic acid, pH 4.1, exposure 5 min
[12] = 0.05% 9-decenoic acid, pH 4.1, exposure 7 min
[13] = 0.05% 9-decenoic acid, pH 4.1, exposure 10 min
[14] = 0.1% 9-decenoic acid, pH 4.1, exposure 0.5 min
[15] = 0.1% 9-decenoic acid, pH 4.1, exposure 2 min
[16] = 0.1% 9-decenoic acid, pH 4.1, exposure 5 min
[17] = 0.1% 9-decenoic acid, pH 4.1, exposure 7 min
[18] = 0.1% 9-decenoic acid, pH 4.1, exposure 10 min

In the case of C=CCCCCCCCC(=O)O [9-decenoic acid], the MIC ([1]; Mueller-Hinton Broth, 20-24 h, 37° C.) is reported as 0.125%, the MBC ([1]; subculture on TSA) is reported as 0.125% and the Log reduction [2, 4] is reported as 1.4 log. The Log reduction [2, 5] was over 6.3 log, the Log reduction [2, 6] was over 6.3 log and the Log reduction [2, 7] was over 6.3 log. The Log reduction [2, 8] was over 6.3 log, the Log reduction [2, 9] was over 6.3 log and the Log reduction [2, 10] was over 6.3 log. For the same compound, the Log reduction [2, 11] was over 6.3 log, the Log reduction [2, 12] was over 6.3 log and the Log reduction [2, 13] was over 6.3 log. It also gave a Log reduction [2, 14] of over 6.3 log, a Log reduction [2, 15] of over 6.3 log and a Log reduction [2, 16] of over 6.3 log. It also gave a Log reduction [2, 17] of over 6.3 log, a Log reduction [2, 18] of over 6.3 log and a Log reduction [3, 4] of over 6.1 log. It also gave a Log reduction [3, 5] of over 6.1 log, a Log reduction [3, 6] of over 6.1 log and a Log reduction [3, 7] of over 6.1 log. It also gave a Log reduction [3, 8] of over 6.1 log, a Log reduction [3, 9] of over 6.1 log and a Log reduction [3, 10] of over 6.1 log. It also gave a Log reduction [3, 11] of over 6.1 log, a Log reduction [3, 12] of over 6.1 log and a Log reduction [3, 13] of over 6.1 log. It also gave a Log reduction [3, 14] of over 6.1 log, a Log reduction [3, 15] of over 6.1 log and a Log reduction [3, 16] of over 6.1 log. The Log reduction [3, 17] was over 6.1 log and the Log reduction [3, 18] was over 6.1 log.

Source: US20080033026A1, “Antimicrobial compositions, methods and systems” (priority 2006, published 2008)
